Measured values reported in patent US8673856B2 (Anygen Co., Ltd., priority 2006, dated 2014).

Columns and labels:
ICR mice [1] = conditions: mouse, in vivo
ICR mice [2] = conditions: mouse, in vivo; remark: listed apart in the source
ICR mice [3] = conditions: mouse, in vivo; remark: listed apart in the source
Sprague-Dawley male rats [4] = conditions: rat, in vivo
[5] = biological target: T1, human N-type calcium channel (Homo sapiens, UniProt Q00975); assay type: cell-based
T1 construct: expressed in transfected cells; host or cells: HEK 293 (human embryonic kidney) cells

Sprague-Dawley male rats [6] = conditions: rat, in vivo, iv
Sprague-Dawley male rats [7] = conditions: rat, in vivo; remark: listed apart in the source
ICR mice [8] = conditions: mouse, in vivo; remark: listed apart in the source
[9] = biological target: T1, human N-type calcium channel; assay type: cell-based; remark: listed apart in the source
Sprague-Dawley male rats [10] = conditions: rat, in vivo; remark: listed apart in the source
ICR mice [11] = conditions: mouse, in vivo, ip
ICR mice [12] = conditions: mouse, in vivo; remark: listed apart in the source

T1 sequence (Q00975 whole entry, looked up): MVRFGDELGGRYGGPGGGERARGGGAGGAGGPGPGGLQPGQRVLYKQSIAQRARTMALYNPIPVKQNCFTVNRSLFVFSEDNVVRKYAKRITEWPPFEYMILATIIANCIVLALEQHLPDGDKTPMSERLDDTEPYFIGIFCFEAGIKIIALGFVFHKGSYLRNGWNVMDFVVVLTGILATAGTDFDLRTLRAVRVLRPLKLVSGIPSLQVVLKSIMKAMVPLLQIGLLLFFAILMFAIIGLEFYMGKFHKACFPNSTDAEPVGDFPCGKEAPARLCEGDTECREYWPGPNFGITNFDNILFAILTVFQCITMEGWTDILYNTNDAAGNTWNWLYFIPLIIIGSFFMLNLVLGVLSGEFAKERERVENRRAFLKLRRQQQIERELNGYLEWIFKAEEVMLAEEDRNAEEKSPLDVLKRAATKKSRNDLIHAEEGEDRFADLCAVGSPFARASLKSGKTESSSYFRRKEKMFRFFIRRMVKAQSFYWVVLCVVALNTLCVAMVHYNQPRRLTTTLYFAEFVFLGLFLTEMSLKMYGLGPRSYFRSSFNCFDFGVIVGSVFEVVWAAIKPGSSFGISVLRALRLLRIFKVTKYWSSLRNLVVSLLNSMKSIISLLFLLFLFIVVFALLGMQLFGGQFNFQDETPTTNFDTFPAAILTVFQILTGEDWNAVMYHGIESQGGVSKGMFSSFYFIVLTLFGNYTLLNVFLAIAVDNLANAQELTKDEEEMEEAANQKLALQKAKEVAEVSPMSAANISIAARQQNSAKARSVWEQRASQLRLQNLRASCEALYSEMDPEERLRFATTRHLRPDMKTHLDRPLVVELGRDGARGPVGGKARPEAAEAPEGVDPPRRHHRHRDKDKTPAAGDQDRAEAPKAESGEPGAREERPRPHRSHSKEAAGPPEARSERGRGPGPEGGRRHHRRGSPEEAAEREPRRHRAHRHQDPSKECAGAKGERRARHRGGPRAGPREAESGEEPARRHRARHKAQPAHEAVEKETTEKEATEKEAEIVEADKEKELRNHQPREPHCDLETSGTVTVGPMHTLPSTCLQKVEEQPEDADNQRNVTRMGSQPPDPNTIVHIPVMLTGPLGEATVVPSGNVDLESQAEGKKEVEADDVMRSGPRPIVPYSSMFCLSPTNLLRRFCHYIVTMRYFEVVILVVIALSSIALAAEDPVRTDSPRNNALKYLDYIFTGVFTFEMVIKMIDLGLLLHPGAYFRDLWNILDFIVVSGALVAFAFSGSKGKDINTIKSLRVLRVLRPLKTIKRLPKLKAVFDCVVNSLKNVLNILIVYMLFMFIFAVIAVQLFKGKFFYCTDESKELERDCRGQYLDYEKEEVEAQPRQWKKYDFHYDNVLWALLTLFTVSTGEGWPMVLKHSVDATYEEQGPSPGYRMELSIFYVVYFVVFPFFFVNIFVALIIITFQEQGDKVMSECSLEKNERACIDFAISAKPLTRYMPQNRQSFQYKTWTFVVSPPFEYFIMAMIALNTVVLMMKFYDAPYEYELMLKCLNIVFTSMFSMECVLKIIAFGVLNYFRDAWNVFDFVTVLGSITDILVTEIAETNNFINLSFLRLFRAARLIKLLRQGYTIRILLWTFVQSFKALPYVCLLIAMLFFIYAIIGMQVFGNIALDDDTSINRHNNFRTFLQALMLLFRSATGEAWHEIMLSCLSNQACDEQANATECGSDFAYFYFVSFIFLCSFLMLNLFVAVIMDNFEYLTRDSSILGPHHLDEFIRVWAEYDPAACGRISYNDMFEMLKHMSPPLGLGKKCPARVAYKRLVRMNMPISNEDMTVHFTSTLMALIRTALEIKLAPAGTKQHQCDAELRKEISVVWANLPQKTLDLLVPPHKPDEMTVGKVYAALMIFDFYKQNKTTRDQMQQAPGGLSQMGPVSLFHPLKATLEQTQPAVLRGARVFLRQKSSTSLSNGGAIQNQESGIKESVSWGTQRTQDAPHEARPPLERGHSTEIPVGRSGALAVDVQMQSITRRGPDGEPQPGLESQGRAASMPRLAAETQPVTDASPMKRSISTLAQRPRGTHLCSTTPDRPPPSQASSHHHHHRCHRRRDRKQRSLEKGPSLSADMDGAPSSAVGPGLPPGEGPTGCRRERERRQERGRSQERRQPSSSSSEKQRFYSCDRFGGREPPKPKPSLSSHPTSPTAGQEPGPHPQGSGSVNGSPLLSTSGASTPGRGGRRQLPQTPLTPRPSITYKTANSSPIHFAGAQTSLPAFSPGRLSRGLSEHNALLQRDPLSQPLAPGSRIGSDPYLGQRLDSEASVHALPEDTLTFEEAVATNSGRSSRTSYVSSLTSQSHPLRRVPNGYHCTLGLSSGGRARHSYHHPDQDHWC

| Compound | Cumulative pain response, formalin test (ICR mice [1]) | Dose dependence of analgesic effect, formalin test (ICR mice [1]) | Pain behaviors in the second phase, formalin test (ICR mice [1]) | Cumulative pain response, glutamate-induced (ICR mice [2]) | Cumulative pain response, substance P-induced (ICR mice [3]) | 50% withdrawal threshold, mechanical allodynia (Sprague-Dawley male rats [4]) | Current-voltage curve [5] | IC50 ([5]; read-out: IC50 from dose-inhibition curve) [nM] | Mean arterial pressure (MAP) time course (Sprague-Dawley male rats [6]) | Analgesic effect on warm allodynia (Sprague-Dawley male rats [7]) | Withdrawal latency, tail-flick test (ICR mice [8]) | Dissociation on washout [9] | Analgesic effect on cold allodynia (Sprague-Dawley male rats [10]) | Count of writhing responses (ICR mice [11]) | Withdrawal latency, plantar test (ICR mice [12]) | Arterial pressure after lapse of time (Sprague-Dawley male rats [6]) | Calcium channel blocking activity [5] | Recovery relative to MVIIA [9] [fold] |
| --- | --- | --- | --- | --- | --- | --- | --- | --- | --- | --- | --- | --- | --- | --- | --- | --- | --- | --- |
| CC[C@H](C)[C@@H]1NC(=O)[C@H](CCCNC(=N)N)NC(=O)[C@H](CO)NC(=O)[C@@H]2CSSC[C@@H]3NC(=O)[C@H](CO)NC(=O)CNC(=O)[C@H]([C@@H](C)O)NC(=O)[C@H](CSSC[C@H](N)C(=O)N[C@@H](CCCCN)C(=O)NCC(=O)N[C@@H]([C@@H](C)O)C(=O)NCC(=O)N[C@@H](CCCCN)C(=O)N[C@@H](CO)C(=O)N2)NC(=O)[C@H](CSSC[C@@H](C(N)=O)NC(=O)[C@H](CCCCN)NC(=O)CNC(=O)[C@H](CO)NC(=O)[C@H](CCCNC(=N)N)NC3=O)NC(=O)[C@H](CC(N)=O)NC(=O)[C@H](Cc2ccc(O)cc2)NC(=O)[C@H](C)NC1=O [FVIA, CKGTGKSCSRIAYNCCTGSCRSGKC-NH2] | significantly decreased cumulative pain response rate in both the first phase and the second phase | analgesic effect in a dose-dependent manner | completely prevented pain behaviors in the second phase | significantly decreased cumulative pain response rate | significantly decreased cumulative pain response rate | elevate 50% withdrawal threshold in a dose dependent manner | curve inhibition without the horizontal curve shift | 11.5 ± 1.4 | much better recovery in MAP | exhibits analgesic effects on cold and warm allodynia | not effective in increasing withdrawal latency | better dissociation comparing MVIIA washout | exhibits analgesic effects on cold and warm allodynia | significantly decreased | not effective in increasing withdrawal latency | – | – | – |
| CSCC[C@@H]1NC(=O)[C@H](CC(C)C)NC(=O)[C@H](CCCNC(=N)N)NC(=O)[C@H](CO)NC(=O)[C@@H]2CSSC[C@@H]3NC(=O)[C@H](CO)NC(=O)CNC(=O)[C@H]([C@@H](C)O)NC(=O)[C@H](CSSC[C@H](N)C(=O)N[C@@H](CCCCN)C(=O)NCC(=O)N[C@@H](CCCCN)C(=O)NCC(=O)N[C@@H](C)C(=O)N[C@@H](CCCCN)C(=O)N2)NC(=O)[C@H](CSSC[C@@H](C(N)=O)NC(=O)[C@H](CCCCN)NC(=O)CNC(=O)[C@H](CO)NC(=O)[C@H](CCCNC(=N)N)NC3=O)NC(=O)[C@H](CC(=O)O)NC(=O)[C@H](Cc2ccc(O)cc2)NC1=O [MVIIA, CKGKGAKCSRLMYDCCTGSCRSGKC-NH2] | – | – | – | – | – | – | – | – | sharp decrease in MAP at an initial stage and slow recovery in MAP | – | – | – | – | – | – | around 60 mmHg | – | – |
| CKGKGAKCSRIAYNCCTGSCRSGKC-NH2 [Chimera-MFMM] | – | – | – | – | – | – | – | – | – | – | – | – | – | – | – | – | significant calcium channel blocking activity | ~2 |
